Experimental data from US8796259B2, “N3-heteroaryl substituted triazoles and N5-heteroaryl substituted triazoles useful as axl inhibitors” (Rigel Pharmaceuticals, Inc., priority 2006, dated 2014).

The compounds below were run against T1, Axl (Homo sapiens, UniProt P30530) (assay: Phospho-Akt in-cell Western assay (inhibition of Axl activity, Axl-antibody cross-linking stimulation)). Details: Hela cells, phospho-Akt readout; compounds of formula (Ia), Table 1.
T1 construct: endogenous in cells; host or cells: HeLa cells
T1 sequence (P30530 26-894): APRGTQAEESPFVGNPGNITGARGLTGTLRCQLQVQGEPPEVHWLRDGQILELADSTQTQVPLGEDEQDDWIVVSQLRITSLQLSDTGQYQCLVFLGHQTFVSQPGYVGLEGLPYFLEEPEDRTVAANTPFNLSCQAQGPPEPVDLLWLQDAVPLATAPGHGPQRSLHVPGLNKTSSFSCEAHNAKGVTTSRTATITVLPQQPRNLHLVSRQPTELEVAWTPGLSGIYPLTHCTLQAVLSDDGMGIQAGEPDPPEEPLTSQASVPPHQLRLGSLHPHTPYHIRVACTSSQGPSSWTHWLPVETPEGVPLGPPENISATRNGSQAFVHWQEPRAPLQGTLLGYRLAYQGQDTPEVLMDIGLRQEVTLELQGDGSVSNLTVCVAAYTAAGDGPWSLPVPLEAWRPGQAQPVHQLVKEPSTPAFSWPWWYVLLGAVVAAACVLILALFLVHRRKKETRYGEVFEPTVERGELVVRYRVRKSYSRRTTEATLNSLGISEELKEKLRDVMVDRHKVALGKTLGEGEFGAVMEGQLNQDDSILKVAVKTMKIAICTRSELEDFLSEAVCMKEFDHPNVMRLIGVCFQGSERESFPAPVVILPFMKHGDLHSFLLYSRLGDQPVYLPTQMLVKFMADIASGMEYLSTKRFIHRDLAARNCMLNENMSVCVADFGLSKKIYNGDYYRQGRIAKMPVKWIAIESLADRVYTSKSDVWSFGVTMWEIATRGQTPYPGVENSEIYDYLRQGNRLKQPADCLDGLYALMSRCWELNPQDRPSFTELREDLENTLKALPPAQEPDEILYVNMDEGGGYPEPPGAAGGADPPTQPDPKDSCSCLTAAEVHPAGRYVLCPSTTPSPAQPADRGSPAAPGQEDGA
Assay type: cell-based
Description: The compounds of the invention were tested in the following assay for their ability to inhibit Axl activity.
Phospho-Akt in-Cell Western Assay
• Cell culture plate: 96 well assay plate (Corning 3610), white, clear bottom, tissue-culture treated. • Cells: Hela cells. • Starvation medium: For Axl stimulation: 0.5% FCS (fetal calf serum) in DMEM, plus Axl/Fc (extracellular domain of AXL fused to immunoglobulin Fc region) (R&D, 154-AL) 500 ng/mL. • For EGF (epidermal growth factor) stimulation: 0.5% FCS in DMEM (Dulbecco's modified Eagles medium). • Poly-L-Lysine 0.01% solution (the working solution): 10 μg/ml, dilute In PBS (phosphate buffered saline). • Axl antibody cross-linking: • 1st: Mouse anti-Axl (R&D, MAB154). • 2nd: Biotin-SP-conjugated AffiniPure goat anti-mouse IgG (H+L) (Jackson ImmunoResearch #115-065-003). • Fixing buffer: 4% formaldehyde in PBS. • Wash buffer: 0.1% TritonX-100 in PBS. • Quenching buffer: 3% H2O2, 0.1% Azide in wash buffer, Azide and hydrogen peroxide (H2O2) are added fresh. • Blocking buffer: 5% BSA in TBST (tris buffered saline plus 0.1% Tween 20). • Primary antibody: Rabbit anti-human Phospho-Akt antibody (Cell Signaling 9271): 1×250 diluted in blocking buffer. • Secondary antibody: HRP (horse radish peroxidase)-conjugated Goat anti-Rabbit secondary, stock solution: Jackson ImmunoResearch (Goat anti-Rabbit HRP, #111-035-144) 1:1 diluted in glycerol, store at −20° C. The working solution: 1×2000 dilution of stock in blocking buffer. • Chemiluminescent working solution (Pierce, 37030): SuperSignal ELISA (enzyme linked immunosorbant assay) Pico Chemiluminescent substrate. • Crystal Violet solution: Stock: 2.5% Crystal violet in methanol, filtered and kept at ambient temperature. The working solution: dilute the stock 1:20 with PBS immediately before use.
10% SDS: working solution: 5% SDS (sodium dodecylsulfate), diluted in PBS
A 96 well TC (tissue culture treated) plate was coated with 10 μg/mL poly-L-Lysine at 37° C. for 30 min, washed twice with PBS, and air-dried for 5 minutes before cells were added. Hela cells were seeded at 10,000 cells/well and the cells were starved in 100 μL starvation medium containing Axl/Fc for 24 hrs.
The cells were pre-treated with test compounds by adding 100 μL of 2× test compound to the starvation medium on the cells. The cells were incubated at 37° C. for 1 hr before stimulation.
The cells were stimulated by Axl-antibody cross-linking as follows: A 5×1st/2nd Axl antibody mixture was made (37.5 μg/mL 1st/100 μg/mL 2 nd) in starvation medium and nutated at 4° C. with thorough mixing for 1-2 hours for clustering. The resulting mix was warmed to 37° C. 50 μL of 5×Axl 1st/2nd of antibody cluster was added to the cells and the cells were incubated at 37° C. for 5 min.
After 5 minutes stimulation, the plate was flicked to remove medium and the plate was tapped onto paper towels. Formaldehyde (4.0% in PBS, 100 μL) was added to fix the cells and the cells were incubated at ambient temperature for 20 min without shaking.
The cells were washed with a plate washer buffer to remove the formaldehyde solution. The plate was flicked to removed excess wash buffer and tapped onto paper towels. Quenching buffer (100 μL) was added to each well and the cells were incubated at ambient temperature for 20 minutes without shaking.
The cells were washed with a plate washer buffer to remove the quenching buffer. Blocking buffer (100 μL) was added and the cells were incubated at ambient temperature for at least an hour with gentle shaking.
The cells were washed with a plate washer buffer and diluted primary antibody (50 μL) was added to each well (blocking buffer was added to the negative control wells instead). The plates were incubated overnight at 4° C. with gentle shaking.
The wash buffer was removed, diluted secondary antibody (100 μL) was added, and the cells were incubated at ambient temperature for 1 hour with gentle shaking. […]

IC50 [nM] | SMILES
< 1000 | COc1cc2ncnc(-n3nc(Nc4ccc(C=CCN5CCC(N6CCCC6)CC5)nc4)nc3N)c2cc1OC [compound 81, 1-(6,7-dimethoxy-quinazoline-4-yl)-N^3-(6-(3-(4-pyrrolidin-1-ylpiperidin-1-yl)propenyl)pyridin-3-yl)-1H-1,2,4-triazole-3,5-diamine]
1000 to 10000 | COc1cc2ncnc(-n3nc(Nc4cnc(N5CCC(CN6CCCCC6)CC5)nc4)nc3N)c2cc1OC [compound 63, 1-(6,7-dimethoxy-quinazoline-4-yl)-N^3-(2-(4-piperidin-1-ylmethyl-piperidin-1-yl)pyrimidin-5-yl)-1H-1,2,4-triazole-3,5-diamine]
< 1000 | Cc1csc2c(-n3nc(Nc4cnc5c(c4)CNCC5)nc3N)nc(Cl)nc12 [compound 25, 1-(2-chloro-7-methylthieno [3,2-d]pyrimidine-4-yl)-N^3-(5,6,7,8-tetrahydro-1,6-naphthyridin-3-yl)-1H-1,2,4-triazole-3,5-diamine]
< 1000 | Cc1csc2c(-n3nc(Nc4cnc5c(c4)CC(C(=O)N4CCCC4)CC5)nc3N)nc(Cl)nc12 (stereo not drawn) [compound 20, 1-(2-chloro-7-methylthieno [3,2-d]pyrimidine-4-yl)-N^3-(6-(pyrrolidin-1ylcarbonyl)-5,6,7,8-tetrahydro-quinolin-3-yl)-1H-1,2,4-triazole-3,5-diamine]
< 1000 | Cc1csc2c(-n3nc(Nc4cnc5c(c4)CC(NC4CCN(C)CC4)CC5)nc3N)nc(Cl)nc12 (stereo not drawn) [compound 51, 1-(2-chloro-7-methylthieno [3,2-d]pyrimidine-4-yl)-N^3-(6-(1-methyl-piperidin-4-ylamino)-5,6,7,8-tetrahydro-quinolin-3-yl)-1H-1,2,4-triazole-3,5-diamine]
< 1000 | Cc1csc2c(-n3nc(Nc4cnc5c(c4)CC(NC(=O)CN(C)C)CC5)nc3N)nc(Cl)nc12 (stereo not drawn) [compound 29, 1-(2-chloro-7-methylthieno [3,2-d]pyrimidin-4-yl)-N^3-(6-(2-(dimethyl-amino)-1-oxyethyl-amino)-5,6,7,8-tetrahydro-quinolin-3-yl)-1H-1,2,4-triazole-3,5-diamine]
< 1000 | Cc1cc(Nc2nc(N)n(-c3ncnc4ccc(F)cc34)n2)cnc1N1CCC(N2CCCC2)CC1 [compound 56, 1-(6-fluoro-quinazolin-4-yl)-N^3-(6-(4-(pyrrolidin-1-yl)piperidin-1-yl)-5-methylpyridin-3-yl)-1H-1,2,4-triazole-3,5-diamine]
< 1000 | Cc1csc2c(-n3nc(Nc4cnc5c(c4)CC4(CC5)OCCO4)nc3N)nc(Cl)nc12 [compound 60, 1-(2-chloro-7-methylthieno [3,2-d]pyrimidin-4-yl)-N^3-(7′,8′-dihydro-5′H-spiro[[1,3]dioxolane-2,6′-quinoline]-3′-yl)-1H-1,2,4-triazole-3,5-diamine]
< 1000 | Cc1csc2c(-n3nc(Nc4cnc5c(c4)CC(NC4CCCC4)CC5)nc3N)nc(Cl)nc12 (stereo not drawn) [compound 70, 1-(2-chloro-7-methylthieno [3,2-d]pyrimidin-4-yl)-N^3-(6-cyclopentyl-amino-5,6,7,8-tetrahydro-quinolin-3-yl)-1H-1,2,4-triazole-3,5-diamine]
< 1000 | CCN(CC)C1CCN(C/C=C/c2ccc(Nc3nc(N)n(-c4ncnc5c(C)csc45)n3)cn2)C1 (stereo not drawn) [compound 121, 1-(7-methylthieno [3,2-d]pyrimidin-4-yl)-N^3-(2-(3-(3-diethyl-amino-pyrrolidin-1-yl)propen-1-yl)pyridin-5-yl)-1H-1,2,4-triazole-3,5-diamine]
< 1000 | Cc1csc2c(-n3nc(Nc4ccc(C=CCN5CCCCC5)nc4)nc3N)ncnc12 [compound 127, 1-(7-methylthieno [3,2-d]pyrimidin-4-yl)-N^3-(2-(3-(piperidin-1-yl)propen-1-yl)pyridin-5-yl)-1H-1,2,4-triazole-3,5-diamine]
< 1000 | Cc1cc(Nc2nc(N)n(-c3nc(Cl)nc4c(C)csc34)n2)cnc1N1CCC(N2CCCC2)CC1 [compound 41, 1-(2-chloro-7-methylthieno [3,2-d]pyrimidin-4-yl)-N^3-(6-(4-(pyrrolidin-1-yl)piperidin-1-yl)-5-methylpyridin-3-yl)-1H-1,2,4-triazole-3,5-diamine]
< 1000 | Nc1nc(Nc2ccc(N3CCN(CC4CC4)CC3)nc2)nn1-c1ccc(C(F)(F)F)cn1 [compound 49, 1-(5-trifluoro-methylpyridin-2-yl)-N^3-(6-(4-cyclopropyl-methyl-piperazin-1-yl)pyridin-3-yl)-1H-1,2,4-triazole-3,5-diamine]
< 1000 | Nc1nc(Nc2ccc(N3CCN(C4CC5CCC4C5)CC3)nc2)nn1-c1nccc2ccccc12 (stereo not drawn) [compound 7, 1-(isoquinolin-1-yl)-N^3-(6-(4-(bicyclo[2.2.1]heptan-2-yl)piperazin-1-yl)pyridin-3-yl)-1H-1,2,4-triazole-3,5-diamine]
< 1000 | Cc1csc2c(-n3nc(Nc4cnc(N5CCC(CN6CCCCC6)CC5)nc4)nc3N)nc(Cl)nc12 [compound 131, 1-(2-chloro-7-methylthieno [3,2-d]pyrimidin-4-yl)-N^3-(2-(4-(piperidin-1-ylmethyl)piperidin-1-yl)pyrimidin-5-yl)-1H-1,2,4-triazole-3,5-diamine]
< 1000 | Cc1csc2c(-n3nc(Nc4cnc5c(c4)CC(NC4CCCC4)CC5)nc3N)ncnc12 (stereo not drawn) [compound 99, 1-(7-methylthieno [3,2-d]pyrimidin-4-yl)-N^3-(6-cyclopentyl-amino-5,6,7,8-tetrahydro-quinolin-3-yl)-1H-1,2,4-triazole-3,5-diamine]
< 1000 | Cc1csc2c(-n3nc(Nc4cnc5c(c4)CCC(N4CCCC4)CC5)nc3N)ncnc12 (stereo not drawn) [compound 105, 1-(7-methylthieno [3,2-d]pyrimidin-4-yl)-N^3-(7-(pyrrolidin-1-yl)-6,7,8,9-tetrahydro-5H-cyclohepta [b]pyridine-3-yl)-1H-1,2,4-triazole-3,5-diamine]

Same assay, conditions: Hela cells, phospho-Akt readout; compounds of formula (Ib), Table 2

IC50 [nM] | SMILES
1000 to 10000 | Cc1cc(Nc2nc(N)nn2-c2nc(Cl)nc3c(C)csc23)cnc1N1CCC(N2CCCC2)CC1 [compound 92, 1-(2-chloro-7-methylthieno[3,2-d]pyrimidin-4-yl)-N^5-(6-(4-(pyrrolidin-1-yl)piperidin-1-yl)-5-methylpyridin-3-yl)-1H-1,2,4-triazole-3,5-diamine]
